Measurements: ChEMBL document CHEMBL1141943, “Synthesis and antitubercular activity of 2-hydroxy-aminoalkyl derivatives of diaryloxy methano phenanthrenes” (2005)
In brackets after ≈: the same amount, converted by molar mass.

Legend:
[1] = test system: Mycobacterium tuberculosis; assay: Antitubercular activity against Mycobacterium tuberculosis H37Rv by agar microdilution technique; assay type: functional
[2] = test system: Mycobacterium tuberculosis; assay: Antitubercular activity against Mycobacterium tuberculosis H37Rv by standard BACTEC radiometric growth assay; assay type: functional

Row | Structure (SMILES) | MIC [1] | MIC [2]
1 | COc1ccc(C(c2ccc(OCC(O)CN3CCN(Cc4ccccc4)CC3)cc2)c2cc3ccccc3c3ccccc23)cc1 (stereo unspecified) | 25 µg/mL (≈ 40.1 µM) | –
2 | CCCCNCC(O)COc1ccc(C(c2ccc(OC)cc2)c2cc3ccccc3c3ccccc23)cc1 (stereo unspecified) | 6.25 µg/mL (≈ 12 µM) | 6.25 µg/mL (≈ 12 µM)
3 | OC(CNC1CCCCC1)COc1ccc(C(c2ccc(OCC(O)CNC3CCCCC3)cc2)c2cc3ccccc3c3ccccc23)cc1 (stereo unspecified) | 6.25 µg/mL (≈ 9.1 µM) | 12.5 µg/mL (≈ 18.2 µM)
4 | CCN(CC)CC(O)COc1ccc(C(c2ccc(OC)cc2)c2cc3ccccc3c3ccccc23)cc1 (stereo unspecified) | 6.25 µg/mL (≈ 12 µM) | 6.25 µg/mL (≈ 12 µM)
5 | COc1ccc(C(c2ccc(OCC(O)CNC3CC3)cc2)c2cc3ccccc3c3ccccc23)cc1 (stereo unspecified) | 25 µg/mL (≈ 49.6 µM) | 25 µg/mL (≈ 49.6 µM)
6 | COc1ccc(C(c2ccc(OCC3CO3)cc2)c2cc3ccccc3c3ccccc23)cc1 (stereo unspecified) | 25 µg/mL (≈ 56 µM) | –
7 | COc1ccc(C(c2ccc(OCC(O)CN3CCCCC3)cc2)c2cc3ccccc3c3ccccc23)cc1 (stereo unspecified) | 12.5 µg/mL (≈ 23.5 µM) | 12.5 µg/mL (≈ 23.5 µM)
8 | COc1ccc(C(c2ccc(OCC(O)CN3CCCC3)cc2)c2cc3ccccc3c3ccccc23)cc1 (stereo unspecified) | 12.5 µg/mL (≈ 24.1 µM) | 12.5 µg/mL (≈ 24.1 µM)
9 | CN1CCN(CC(O)COc2ccc(C(c3ccc(OCC(O)CN4CCN(C)CC4)cc3)c3cc4ccccc4c4ccccc34)cc2)CC1 (stereo unspecified) | 12.5 µg/mL (≈ 18.1 µM) | 12.5 µg/mL (≈ 18.1 µM)
10 | COc1ccc(C(c2ccc(OCC(O)CN3CCN(C)CC3)cc2)c2cc3ccccc3c3ccccc23)cc1 (stereo unspecified) | 12.5 µg/mL (≈ 22.9 µM) | 12.5 µg/mL (≈ 22.9 µM)
11 | COc1ccc(C(c2ccc(OCC(O)CN3CCOCC3)cc2)c2cc3ccccc3c3ccccc23)cc1 (stereo unspecified) | 25 µg/mL (≈ 46.8 µM) | –
12 | COc1ccc(C(c2ccc(OCC(O)CNC3CCCCC3)cc2)c2cc3ccccc3c3ccccc23)cc1 (stereo unspecified) | 12.5 µg/mL (≈ 22.9 µM) | 6.25 µg/mL (≈ 11.5 µM)
13 | OC(COc1ccc(C(c2ccc(OCC(O)CN3CCCCC3)cc2)c2cc3ccccc3c3ccccc23)cc1)CN1CCCCC1 (stereo unspecified) | 6.25 µg/mL (≈ 9.49 µM) | 12.5 µg/mL (≈ 19 µM)
14 | COc1ccc(C(c2ccc(OCC(O)CNC3CCCCCC3)cc2)c2cc3ccccc3c3ccccc23)cc1 (stereo unspecified) | 3.12 µg/mL (≈ 5.57 µM) | 3.12 µg/mL (≈ 5.57 µM)
15 | OC(COc1ccc(C(c2ccc(OCC(O)CN3CCCC3)cc2)c2cc3ccccc3c3ccccc23)cc1)CN1CCCC1 (stereo unspecified) | 12.5 µg/mL (≈ 19.8 µM) | 12.5 µg/mL (≈ 19.8 µM)
16 | NNC(=O)c1ccncc1 [ISONIAZID] | 0.05 µg/mL (≈ 0.365 µM) | 0.025 µg/mL (≈ 0.182 µM)
17 | CO[C@H]1/C=C/O[C@@]2(C)Oc3c(C)c(O)c4c(O)c(c(/C=N/N5CCN(C)CC5)c(O)c4c3C2=O)NC(=O)/C(C)=C\C=C\[C@H](C)[C@H](O)[C@@H](C)[C@@H](O)[C@@H](C)[C@H](OC(C)=O)[C@@H]1C [RIFAMPIN] | 0.1 µg/mL (≈ 0.122 µM) | 0.2 µg/mL (≈ 0.243 µM)
